Source: patent US20200390767A1, “Formulations of 4-(7-Hydroxy-2-isopropyl-4-oxo-4H-quinazolin-3-yl)-benzonitrile” (NOVARTIS AG, priority 2019, published 2020)

Test system: corneal sensitivity
Test: First in human study, esthesiometry assessment (Part 3)
Type: in vivo
Settings: single eye drop; for anesthetic effect on the cornea: healthy subjects
Excerpt: Part 3 was an esthesiometry assessment to evaluate the anesthetic properties of compound I. Part 3 of the study had four arms, with compound I, vehicle, tetracaine (0.5% ophthalmic solution, used as a positive control) and diclofenac sodium (0.1% ophthalmic solution, used as the active NSAID comparator). Ocular anesthetic was selected because of its established anesthetic effect; however it is not the standard of care due to its negative effect on wound healing. NSAID is the current standard of care for corneal pain after PRK with minimal anesthetic but significant pain control properties. Vehicle eye drops were used as a negative control to enable better determination of the potential anesthetic effect. Twelve healthy subjects, who met the eligibility criteria, were randomized to receive a single eye drop of 4 study treatments, each during 1 of 4 different study days (Days 1, 4, 7 and 10). Each subject was randomized to receive the study treatment according to one of the following four sequences: • Sequence 1: Anesthetic, NSAID, compound I 2.5%, Vehicle • Sequence 2: NSAID, Vehicle, Anesthetic, compound I 2.5% • Sequence 3: Vehicle, compound I 2.5%, NSAID, Anesthetic • Sequence 4: compound I 2.5%, Anesthetic, Vehicle, NSAID
The first-in-human study further evaluated potential anesthetic effect of topical ocular 2.5% compound I by esthesiometry testing, i.e. measurement of the filament length (cm) when the threshold of cornea touch is perceived.

Row | Structure (SMILES) | anesthetic effect on the cornea | duration of action of anesthetic effect
1 | O=C(O)Cc1ccccc1Nc1c(Cl)cccc1Cl [diclofenac 0.1%, diclofenac sodium] | no anesthetic effect | –
2 | CCCCNc1ccc(C(=O)OCCN(C)C)cc1 [tetracaine 0.5%, tetracaine] | had an anesthetic effect | approximately 10 minutes
